Earlier results on four compounds are cited in US7596836B2 (priority 2007, dated 2009).

The conditions of series [1]: in vivo.
A further series concerns influenza. The settings on record: dosage of a compound containing 1% to 3% thymol.
The next series has as its system Avian Influenza H5N1. As to conditions: patients worldwide, current strain of Avian Influenza H5N1.
The conditions of series [2]: reports in Japan, including suicide attempts.
For series [3] the following is noted: in vivo. The source holds these as a separate data set.
The test system of the next series is HIV. The settings on record: clinical trials; response directly related to the dosage given.
The conditions of series [4]: 250 mg chloroquine phosphate twice daily must be monitored closely.

Consider `CC1CCC(C(C)C)C(O)C1` (stereo not shown) [Menthol], for which the reduction of coughing in series [1] was 50%.
In the case of `Cc1ccc(C(C)C)c(O)c1` [thymol, Thymol], in the series on influenza, the effect against influenza entry is on record as “effective at fighting influenza”.
As to `CCOC(=O)C1=C[C@@H](OC(CC)CC)[C@H](NC(C)=O)[C@@H](N)C1` [oseltamivir], the “mortality of oseltamivir treated patients” value in the series on Avian Influenza H5N1 was ~50%. For the same compound, the reported side effects entry in series [2] was “serious neuropsychiatric symptoms”.
In the case of `CCN(CC)CCCC(C)Nc1ccnc2cc(Cl)ccc12` (stereo not shown) [chloroquine], in series [3], the serum half-life was 96 h. The “efficacy against HIV” value in the series on HIV is given as “effective against HIV”. Further, in series [4], the “toxicity of oral chloroquine” value is “ocular complications and renal toxicity”.
